Data: patent US20150087037A1, “FERMENTATION PROCESS” (LanzaTech New Zealand Limited, priority 2013, published 2015)

Assays:
LZ1561 = assay: Differential gene expression analysis before and after 2-HIBA addition (Example 6); type: cell-based, Clostridium autoethanogenum
From the text: In order to understand the impact of 2-HIBA on the metabolism of LZ1561 samples were taken for gene expression analysis. A reactor was started up as a batch and after 1 day was turned continuous at a D=1.4 day^−1. Gas flow and agitation were adjusted in order to minimise acetate and maximise ethanol and 2,3-BDO production. By day 7 the Ethanol:2,3-BDO ratio was less than 5:1 and the gas had reached target CO uptake of between 5-6 mol/L/day. On day 9.6 a sample was taken for gene expression analysis representing stable data without 2-HIBA. […] The results for this analysis indicated very clearly that 2-HIBA interacts with the Branch Chain Amino Acid biosynthesis pathway (BCAA). From the results a mode of action of 2-HIBA was proposed and this is illustrated and described in FIG. 11.

[1] = system: C. autoethanogenum DSM23693; assay: Single reactor fermentation optimised for 2,3-BDO production, single 2-HIBA addition (Example 1); type: cell-based, Clostridium autoethanogenum
Experimental: Fermentations with C. autoethanogenum DSM23693 were carried out in 1.5 L bioreactors at 37° C. The media was prepared according to Table 1. To achieve anaerobicity the reactor vessel was sparged with nitrogen. Prior to inoculation, the gas was switched to either steel mill gas containing H2 (3%), N2 (30%), CO (47%) and CO2 (20%) or pure gases (50% CO, 18-40% CO2, with the balance N2). The gas flow was initially set at 67 ml/min/L, increasing to 200 ml/min during mid-exponential phase, while the agitation was increased from 200 rpm to 800. Na2S was dosed into the bioreactor at 0.25 ml/hr. Once the OD600 reached 1.5, the bioreactor was switched to a continuous mode at a dilution rate of 2.0-1.6 d-l and a bacterial dilution rate of 0.9-0.6 d-l. During continuous mode gas and agitation were adjusted to 900-950 rpm and 800-900 ml/min. Na2S was increased to 1.0 ml/hr.
Liquid culture samples were taken at differing intervals over the duration of the fermentation. These samples were used to establish the optical density at 600 nm (spectrophotometer) and the level of substrates and products (high performance liquid chromatography—HPLC). HPLC was routinely used to quantify the level of acetate, ethanol and 2,3-butanediol. The input and output gas compositions were analysed using a gas chromatographer (GC), allowing measurement of CO and H2 consumption and CO2 production by the culture.
The impacts of 2-HIBA were investigated on a single reactor system which had been optimised for 2,3-BDO production. This was done to ascertain the impact that this chemical would have on a high performance system and obtain information on suitable concentrations that would not interfere with overall fermentation stability.
The 2,3-BDO concentration increased from 6 g/L to 12 g/L dropping the ratio from 4:1 to as low as 1.4:1. […] The concentration of 2-HIBA was monitored in the reactor liquid outflow. […] The 2-HIBA washes out of the fermenter according to the bacterial dilution rate.

[2] = system: Clostridium autoethanogenum; assay: Fermentation of gaseous substrate comprising CO with 2-HIBA: general findings and carbon balance; type: cell-based
From the text: Accordingly, the inventors are the first to devise a process for producing high concentrations of 2,3-butanediol through the microbial fermentation of a gaseous substrate comprising CO. In a first stage, a gaseous substrate comprising CO is fed to a bioreactor containing a culture of one or more microorganisms suspending in liquid nutrient media. The gaseous substrate is anaerobically fermented to produce one or more alcohols and/or one or more acids or mixtures thereof. Compounds are provided to the fermentation to alter the metabolite profile of the fermentation.
Carbon balance measurements were performed to confirm the shift to increased 2,3-butanediol production after addition of 2-HIBA.
As the 2-HIBA is not consumed by the fermentation, it is possible to recover 2-HIBA exiting the bioreactor and pass it back to the bioreactor to improve the efficiency of the fermentation.

[3] = 0 mM vs 4.8 mM 2-HIBA addition, down-regulated
[4] = 0 mM vs 4.8 mM 2-HIBA addition, up-regulated

## CC(C)(O)C(=O)O [2-HIBA, 2-hydroxyisobutyric acid]
LZ1561; [3]
  log2 fold_change, or1907 Indole-3-glycerol phosphate synthase CDS: −3.042
  log2 fold_change, or2161 Alcohol dehydrogenase CDS: −3.476
  log2 fold_change, or2739 Glutamate synthase (NADPH) CDS: −3.498
  log2 fold_change, or2997 Glycerol dehydrogenase CDS: −4.924
  log2 fold_change, or3075 Glucarate dehydratase CDS: −4.084
  log2 fold_change, or3076 hypothetical protein CDS: −3.469
  log2 fold_change, or3079 Methylglyoxal reductase (NADPH-dependent) CDS: −4.02
  log2 fold_change, or3080 transcriptional regulator, CdaR CDS: −3.947
LZ1561; [4]
  log2 fold_change, or1190 2-isopropylmalate synthase CDS: 3.63
  log2 fold_change, or1191 3-isopropylmalate dehydratase large subunit CDS: 3.55
  log2 fold_change, or1193 3-isopropylmalate dehydrogenase CDS: 3.289
  log2 fold_change, or2387 Ketol-acid reductoisomerase CDS: 3.202
  log2 fold_change, or2388 Dihydroxy-acid dehydratase CDS: 2.901
  log2 fold_change, or2389 acetolactate synthase, large subunit, biosynthetic type CDS: 3.255
  log2 fold_change, or2390 acetolactate synthase, small subunit CDS: 3.237
  log2 fold_change, or2461 General substrate transporter CDS: 2.867
LZ1561; 0.5 g/L (4.8 mM) 2-HIBA added on day 10.78
  response in metabolites: decreasing acetate, ethanol and biomass with increasing 2,3-BDO
LZ1561; Day 12.8-14.0, stable 0.5 g/L HIBA addition, before 4.7
  Biomass: 3.45 g/L
LZ1561; Day 12.8-14.0, stable 0.5 g/L HIBA addition, before 5.7
  CO uptake: 5.1 mol/L/day
[1]; 0.5 g/L (4.8 mM) 2-HIBA
  impact on gas uptake: not to have a detrimental impact on gas uptake
[1]; 0.5 g/L (4.8 mM) 2-HIBA, FIG. 1
  metabolite profile of the fermentation: increasing the production of 2,3-butanediol whilst decreasing the production of ethanol, acetate and biomass
[1]; after 0.5 g/L (4.8 mM) 2-HIBA added on day 7.95, increased from 6 g/L
  2,3-BDO concentration: 12 g/L
[1]; matched the bacterial dilution rate
  overall washout rate of 2-HIBA: 0.7 day⁻¹
[1]; similar to the dilution rate
  initial washout rate of 2-HIBA: ~1.8 day⁻¹
[2]; 2-HIBA at 0.01 g/L-2.0 g/L (0.096 to 19.2 mM)
  2,3-BDO concentration: significantly increases
[2]; addition of 2-HIBA
  ethanol:2,3-BDO ratio: significantly improves
[2]; before and after addition of 2-HIBA, FIG. 14
  carbon balance: clear increase in 2,3-butanediol production, accompanied by a decrease in production of ethanol, acetate and biomass
[2]; continuous addition, 0.01 g/L/day-2.0 g/L/day (0.096 to 19.2 mM/day)
  overall fermentation stability: without affecting overall fermentation stability
